According to US10538555B2, “Macrocyclic inhibitors of the PD-1/PD-L1 and CD80(B7-1)/PD-L1 protein/protein interactions” (BRISTOL-MYERS SQUIBB COMPANY, priority 2014, dated 2020):
*1 amine or outer side, *2 acyl side, *3 side chain or, on linkers, in order; H or OH if unused. Where a SMILES comes first, the peptide text is derived from it. Bridges are numbered along the chain shown (N, C = ends). [ ]: non-standard residue; d: D form. Trp(1-CH2COOH) = N[C@@H](Cc1cn(CC(=O)O)c2ccccc12)C(=O)O; Phe(3,4,5-F3) = N[C@@H](Cc1cc(F)c(F)c(F)c1)C(=O)O; NMeW = CN[C@@H](Cc1c[nH]c2ccccc12)C(=O)O; Phe(3-Cl) = N[C@@H](Cc1cccc(Cl)c1)C(=O)O; Phe(4-F) = N[C@@H](Cc1ccc(F)cc1)C(=O)O; d(cisHyp) = O=C(O)[C@H]1C[C@@H](O)CN1; Bta = N[C@@H](Cc1csc2ccccc12)C(=O)O; Hyp = O=C(O)[C@@H]1C[C@@H](O)CN1; NMeF = CN[C@@H](Cc1ccccc1)C(=O)O; X1 = O=C([C@H]1COCCN1[*:1])[*:2]; dPip(4-aza) = O=C(O)[C@H]1CNCCN1; NMeE = CN[C@@H](CCC(=O)O)C(=O)O; NMeNle = CCCC[C@H](NC)C(=O)O; NMeA = CN[C@@H](C)C(=O)O; Orn = NCCC[C@H](N)C(=O)O; Dab = NCC[C@H](N)C(=O)O; dAze = O=C(O)[C@H]1CCN1; Dap = NC[C@H](N)C(=O)O; CO = O=C([*:1])[*:2]

biological target: T1, Human PD-L1/PD-1 (Homo sapiens, UniProt Q9NZQ7); experiment: HTRF Human PD-L1/PD-1 binding assay (PD-1-Ig/PD-L1-His); settings: PD-L1-His 10 nM, PD-1-Ig 20 nM; class symbol; read-out: HTRF Human PD-L1/PD-1 Binding Assay IC50 Range
T1 construct: TVMV protease cleavage site (C); made in house; host or cells: HEK293T cells
T1 sequence (Q9NZQ7 with tags, fused parts or gaps): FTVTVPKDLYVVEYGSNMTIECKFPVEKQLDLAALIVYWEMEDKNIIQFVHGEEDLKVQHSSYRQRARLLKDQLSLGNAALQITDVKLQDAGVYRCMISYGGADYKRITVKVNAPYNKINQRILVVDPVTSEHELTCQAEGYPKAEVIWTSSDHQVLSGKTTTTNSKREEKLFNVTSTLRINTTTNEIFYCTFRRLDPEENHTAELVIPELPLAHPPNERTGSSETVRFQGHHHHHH
Method in brief: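 Step 1: compound with PD-L1-His (10 nM final), 15 min. Step 2: PD-1-Ig (20 nM final), 15 min. Step 3: Eu-cryptate anti-Ig (1 nM) plus APC anti-His (20 nM), 30 min equilibration. Signal taken as 665 nm/620 nm ratio.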

Structure (SMILES) | IC50 [µM]
CCCC[C@H]1C(=O)N2C[C@H](O)C[C@@H]2C(=O)N[C@@H](CC(=O)O)C(=O)N[C@@H](C(C)C)C(=O)N(C)[C@@H](Cc2ccccc2)C(=O)N[C@@H](CCC(=O)O)C(=O)N2CCC[C@@H]2C(=O)N[C@@H](Cc2c[nH]c3ccccc23)C(=O)N[C@@H](Cc2ccc(O)cc2)C(=O)N[C@@H](CCCN)C(=O)N[C@H](C(=O)NCC(N)=O)CSCC(=O)N[C@@H](Cc2cc(F)c(F)c(F)c2)C(=O)N(C)[C@@H](Cc2ccccc2)C(=O)N1C [Example 3646] ({CH2CO}-[Phe(3,4,5-F3)][NMeF][NMeNle][d(cisHyp)]DV[NMeF]E[dP]WY[Orn]CG-NH2; thioether N-13) | 0.01 to 0.0999
CCCC[C@H]1C(=O)N2C[C@H](O)C[C@@H]2C(=O)N[C@@H](CC(=O)O)C(=O)N[C@@H](C(C)C)C(=O)N(C)[C@@H](Cc2ccccc2)C(=O)N[C@@H](CCC(=O)O)C(=O)N2CCNC[C@@H]2C(=O)N[C@@H](Cc2c[nH]c3ccccc23)C(=O)N[C@@H](Cc2ccc(O)cc2)C(=O)N[C@@H](CCCN)C(=O)N[C@H](C(=O)NCC(N)=O)CSCC(=O)N[C@@H](Cc2cccc(Cl)c2)C(=O)N(C)[C@@H](Cc2ccccc2)C(=O)N1C [Example 3647] ({CH2CO}-[Phe(3-Cl)][NMeF][NMeNle][d(cisHyp)]DV[NMeF]E[dPip(4-aza)]WY[Orn]CG-NH2; thioether N-13) | 0.01 to 0.0999
CCCC[C@H]1C(=O)N2C[C@H](O)C[C@@H]2C(=O)N[C@@H](CC(=O)O)C(=O)N[C@@H](C(C)C)C(=O)N(C)[C@@H](Cc2ccccc2)C(=O)N[C@@H](CCC(=O)O)C(=O)N2CCNC[C@@H]2C(=O)N[C@@H](Cc2c[nH]c3ccccc23)C(=O)N[C@@H](Cc2ccc(O)cc2)C(=O)N[C@@H](CCCN)C(=O)N[C@H](C(=O)NCC(N)=O)CSCC(=O)N[C@@H](Cc2ccc(F)cc2)C(=O)N(C)[C@@H](Cc2ccccc2)C(=O)N1C [Example 3648] ({CH2CO}-[Phe(4-F)][NMeF][NMeNle][d(cisHyp)]DV[NMeF]E[dPip(4-aza)]WY[Orn]CG-NH2; thioether N-13) | 0.01 to 0.0999
CCCC[C@H]1C(=O)N[C@@H](CN)C(=O)N[C@H](C(=O)NCC(N)=O)CSCC(=O)N[C@@H](Cc2ccc(O)cc2)C(=O)N(C)[C@@H](C)C(=O)N[C@@H](CC(N)=O)C(=O)N2CCC[C@H]2C(=O)N[C@@H](Cc2c[nH]cn2)C(=O)N[C@@H](CCC(=O)O)C(=O)N2C[C@H](O)C[C@H]2C(=O)N[C@@H](Cc2c[nH]c3ccccc23)C(=O)N[C@@H](CCN)C(=O)N[C@@H](Cc2c[nH]c3ccccc23)C(=O)N(C)[C@@H](CCC(=O)O)C(=O)N1C [Example 5152] ({CH2CO}-Y[NMeA]NPHE[Hyp]W[Dab]W[NMeE][NMeNle][Dap]CG-NH2; thioether N-14) | 0.01 to 0.0999
CCCC[C@H]1C(=O)N(C)[C@@H](CCCC)C(=O)N[C@@H](CNC(=O)O)C(=O)N[C@H](C(=O)NCC(N)=O)CSCC(=O)N[C@@H](Cc2ccc(O)cc2)C(=O)N(C)[C@@H](C)C(=O)N[C@@H](CC(=O)O)C(=O)N2CCC[C@H]2C(=O)N[C@@H](CN)C(=O)N[C@@H](CCC(=O)O)C(=O)N2C[C@H](O)C[C@H]2C(=O)N[C@@H](Cc2c[nH]c3ccccc23)C(=O)N[C@@H](CCC(=O)O)C(=O)N[C@@H](Cc2c[nH]c3ccccc23)C(=O)N1C [Example 5154] ({CH2CO}-Y[NMeA]DP[Dap]E[Hyp]WEW[NMeNle][NMeNle][Dap](CO)CG-NH2; thioether N-14) | 0.01 to 0.0999
CCCC[C@H]1C(=O)N(C)[C@@H](CCCC)C(=O)N[C@@H](CCC(=O)O)C(=O)N[C@H](C(=O)NCC(N)=O)CSCC(=O)N[C@@H](Cc2ccc(O)cc2)C(=O)N(C)[C@@H](C)C(=O)N[C@@H](CC(=O)O)C(=O)N2CCC[C@H]2C(=O)N[C@@H](Cc2c[nH]cn2)C(=O)N[C@@H](CCC(N)=O)C(=O)N2C[C@H](O)C[C@H]2C(=O)N[C@@H](Cc2c[nH]c3ccccc23)C(=O)N[C@@H](CCC(=O)O)C(=O)N[C@@H](Cc2c[nH]c3ccccc23)C(=O)N1C [Example 5158] ({CH2CO}-Y[NMeA]DPHQ[Hyp]WEW[NMeNle][NMeNle]ECG-NH2; thioether N-14) | 0.01 to 0.0999
CCCC[C@H]1C(=O)N[C@@H](CN)C(=O)N[C@H](C(=O)NCC(N)=O)CSCC(=O)N[C@@H](Cc2ccc(O)cc2)C(=O)N(C)[C@@H](C)C(=O)N[C@@H](CC(N)=O)C(=O)N2CCC[C@H]2C(=O)N[C@@H](Cc2c[nH]cn2)C(=O)N[C@@H](CCC(=O)O)C(=O)N2C[C@H](O)C[C@H]2C(=O)N[C@@H](Cc2c[nH]c3ccccc23)C(=O)N[C@@H](CCN)C(=O)N[C@@H](Cc2c[nH]c3ccccc23)C(=O)N(C)[C@@H](Cc2c[nH]c3ccccc23)C(=O)N1C [Example 5160] ({CH2CO}-Y[NMeA]NPHE[Hyp]W[Dab]W[NMeW][NMeNle][Dap]CG-NH2; thioether N-14) | 0.01 to 0.0999

The remaining lines, values ahead:

IC50 [µM] | Structure (SMILES)
0.001 to 0.0099 | CCCC[C@H]1C(=O)N2C[C@H](O)C[C@@H]2C(=O)N[C@@H](CC(=O)O)C(=O)N[C@@H](C(C)C)C(=O)N(C)[C@@H](Cc2ccccc2)C(=O)N[C@@H](CCC(=O)O)C(=O)N2CC[C@@H]2C(=O)N[C@@H](Cc2c[nH]c3ccccc23)C(=O)N[C@@H](Cc2ccc(O)cc2)C(=O)N[C@@H](CCCN)C(=O)N[C@H](C(=O)NCC(N)=O)CSCC(=O)N[C@@H](Cc2cc(F)c(F)c(F)c2)C(=O)N(C)[C@@H](Cc2ccccc2)C(=O)N1C [Example 3644] ({CH2CO}-[Phe(3,4,5-F3)][NMeF][NMeNle][d(cisHyp)]DV[NMeF]E[dAze]WY[Orn]CG-NH2; thioether N-13)
0.01 to 0.0999 | CCCC[C@H]1C(=O)N2CCC[C@@H]2C(=O)N[C@@H](CC(=O)O)C(=O)N[C@@H](C(C)C)C(=O)N(C)[C@@H](Cc2ccccc2)C(=O)N[C@@H](CCC(=O)O)C(=O)N2CCOC[C@@H]2C(=O)N[C@@H](Cc2c[nH]c3ccccc23)C(=O)N[C@@H](Cc2ccc(O)cc2)C(=O)N[C@@H](CCCN)C(=O)N[C@H](C(=O)NCC(N)=O)CSCC(=O)N[C@@H](Cc2cc(F)c(F)c(F)c2)C(=O)N(C)[C@@H](Cc2ccccc2)C(=O)N1C [Example 3645] ({CH2CO}-[Phe(3,4,5-F3)][NMeF][NMeNle][dP]DV[NMeF]E[X1]WY[Orn]CG-NH2; thioether N-13)
0.001 to 0.0099 | CCCC[C@H]1C(=O)N(C)[C@@H](CCCC)C(=O)N[C@@H](CCC(=O)O)C(=O)N[C@H](C(=O)NCC(N)=O)CSCC(=O)N[C@@H](Cc2ccc(O)cc2)C(=O)N(C)[C@@H](C)C(=O)N[C@@H](CC(N)=O)C(=O)N2CCC[C@H]2C(=O)N[C@@H](Cc2c[nH]cn2)C(=O)N[C@@H](CCC(=O)O)C(=O)N2C[C@H](O)C[C@H]2C(=O)N[C@@H](Cc2c[nH]c3ccccc23)C(=O)N[C@@H](CO)C(=O)N[C@@H](Cc2c[nH]c3ccccc23)C(=O)N1C [Example 5150] ({CH2CO}-Y[NMeA]NPHE[Hyp]WSW[NMeNle][NMeNle]ECG-NH2; thioether N-14)
0.001 to 0.0099 | CCCC[C@H]1C(=O)N(C)[C@@H](CCCC)C(=O)N[C@@H](CC(C)C)C(=O)N[C@H](C(=O)NCC(N)=O)CSCC(=O)N[C@@H](Cc2ccc(O)cc2)C(=O)N(C)[C@@H](C)C(=O)N[C@@H](CC(=O)O)C(=O)N2CCC[C@H]2C(=O)N[C@@H](CN)C(=O)N[C@@H](CCC(N)=O)C(=O)N2C[C@H](O)C[C@H]2C(=O)N[C@@H](Cc2c[nH]c3ccccc23)C(=O)N[C@@H](CCN)C(=O)N[C@@H](Cc2cn(CC(=O)O)c3ccccc23)C(=O)N1C [Example 5153] ({CH2CO}-Y[NMeA]DP[Dap]Q[Hyp]W[Dab][Trp(1-CH2COOH)][NMeNle][NMeNle]LCG-NH2; thioether N-14)
0.001 to 0.0099 | CCCC[C@H]1C(=O)N(C)[C@@H](CCCC)C(=O)N[C@H](C)C(=O)N[C@H](C(=O)NCC(N)=O)CSCC(=O)N[C@@H](Cc2ccc(O)cc2)C(=O)N(C)[C@@H](C)C(=O)N[C@@H](CC(N)=O)C(=O)N2CCC[C@H]2C(=O)N[C@@H](Cc2c[nH]cn2)C(=O)N[C@@H](CCC(=O)O)C(=O)N2C[C@H](O)C[C@H]2C(=O)N[C@@H](Cc2c[nH]c3ccccc23)C(=O)N[C@@H](CCN)C(=O)N[C@@H](Cc2csc3ccccc23)C(=O)N1C [Example 5159] ({CH2CO}-Y[NMeA]NPHE[Hyp]W[Dab][Bta][NMeNle][NMeNle][dA]CG-NH2; thioether N-14)
0.001 to 0.0099 | CCCC[C@H]1C(=O)N(C)[C@@H](CCCC)C(=O)N[C@@H](CCC(=O)O)C(=O)N[C@H](C(=O)NCC(N)=O)CSCC(=O)N[C@@H](Cc2ccc(O)cc2)C(=O)N(C)[C@@H](C)C(=O)N[C@@H](CC(N)=O)C(=O)N2CCC[C@H]2C(=O)N[C@@H](CN)C(=O)N[C@@H](CC(C)C)C(=O)N2C[C@H](O)C[C@H]2C(=O)N[C@@H](Cc2c[nH]c3ccccc23)C(=O)N[C@@H](CCN)C(=O)N[C@@H](Cc2c[nH]c3ccccc23)C(=O)N1C [Example 5161] ({CH2CO}-Y[NMeA]NP[Dap]L[Hyp]W[Dab]W[NMeNle][NMeNle]ECG-NH2; thioether N-14)
0.001 to 0.0099 | CCCC[C@H]1C(=O)N(C)[C@@H](CCCC)C(=O)N[C@@H](CCC(=O)O)C(=O)N[C@H](C(=O)NCC(N)=O)CSCC(=O)N[C@@H](Cc2ccc(O)cc2)C(=O)N(C)[C@@H](C)C(=O)N[C@@H](CC(=O)O)C(=O)N2CCC[C@H]2C(=O)N[C@@H](CN)C(=O)N[C@@H](CC(C)C)C(=O)N2C[C@H](O)C[C@H]2C(=O)N[C@@H](Cc2c[nH]c3ccccc23)C(=O)N[C@@H](CCN)C(=O)N[C@@H](Cc2c[nH]c3ccccc23)C(=O)N1C [Example 5162] ({CH2CO}-Y[NMeA]DP[Dap]L[Hyp]W[Dab]W[NMeNle][NMeNle]ECG-NH2; thioether N-14)
0.001 to 0.0099 | CCCC[C@H]1C(=O)N(C)[C@@H](CCCC)C(=O)N[C@@H](CN)C(=O)N[C@H](C(=O)NCC(N)=O)CSCC(=O)N[C@@H](Cc2ccc(O)cc2)C(=O)N(C)[C@@H](C)C(=O)N[C@@H](CC(=O)O)C(=O)N2CCC[C@H]2C(=O)N[C@@H](Cc2c[nH]cn2)C(=O)N[C@@H](CCC(N)=O)C(=O)N2C[C@H](O)C[C@H]2C(=O)N[C@@H](Cc2c[nH]c3ccccc23)C(=O)N[C@@H](CO)C(=O)N[C@@H](Cc2cn(CC(=O)O)c3ccccc23)C(=O)N1C [Example 5163] ({CH2CO}-Y[NMeA]DPHQ[Hyp]WS[Trp(1-CH2COOH)][NMeNle][NMeNle][Dap]CG-NH2; thioether N-14)
